These results are taken from the METLIN SMRT retention time set (Domingo-Almenara et al. 2019).

The nature of this series: gradient 5% acetonitrile 3 min, to 50% in 2 min, to 85% in 15 min, held 3 min, 100 µL/min. Particulars: column: Zorbax Extend-C18 2.1 x 50 mm; eluents: water / acetonitrile, 0.1% formic acid. Put shortly:
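Retention times come from adduct peaks that were picked computationally and then checked by hand. The standards, pure and pooled in mixtures of ~100 molecules, were run on a Zorbax Extend-C18 column (2.1 × 50 mm, 1.8 μm) at 100 μL/min with water and acetonitrile, each with 0.1% formic acid. Detection was by quadrupole time-of-flight mass spectrometry in positive and negative ionization mode, with a dead volume of 40 μL and a dwell volume of 900 μL.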
With `C=CCN1CCN(c2nc3cc(C(=O)OC)ccc3c(=O)n2-c2ccc(OC)c(OC)c2)CC1`, the RP-LC retention time turned out to be 631 s.

With `Cc1cc(N2CCC(NC(=O)Nc3ccc(Cl)cc3F)C2=O)ccc1F` (stereo not given), the RP-LC retention time was determined as 923 s. For the compound `CC(C)c1ccc(S(=O)(=O)N2CCc3nn(C)c(=O)n3CC2)cc1`, the RP-LC retention time was 785 s. The value for `O=C(Cn1nc2n(c1=O)CCCCC2)N1CCN(c2ccc(F)cc2)CC1` was 701 s; that for `Cc1ccc(Cn2c(=O)n(CCNC(=O)C(C)C)c3ncccc32)cc1` was 769 s. The value for `CCOC(=O)c1cc(C2CC2)nc2c1c(=O)n(CCc1c(C)noc1C)c(=O)n2C` was 980 s; that for `O=C(Nc1ccc2c(c1)OCCO2)c1ccc(-c2ccnc(N3CCCC3)n2)cc1` was 768 s. Compound `CCOc1ccc2c(n1)CCN(C(=O)C1(c3ccccc3)CC1)C2` showed an RP-LC retention time of 952 s. For `CCc1nnc2cc(N3CCN(C(=O)c4ccc(Cl)cc4)CC3)cnn12`, the RP-LC retention time turned out to be 561 s. On to `CCc1noc(NC(C)=O)c1-c1ccc(C)c(S(=O)(=O)Nc2c(Cl)cc(OC)cc2OC)c1`, for which the RP-LC retention time stood at 827 s. `Cc1cccc(C(=O)NCc2nn(C)c3ccccc23)c1` had an RP-LC retention time of 814 s.

Compound `Cc1ccc(CNC(=O)c2nnc(-c3ccc(S(=O)(=O)N4CCCCC4)cc3)o2)cc1` yielded an RP-LC retention time of 1020 s.

Compound `COCCNC(=O)CSc1nc(-c2ccccc2)[nH]c1-c1ccccc1` yielded an RP-LC retention time of 641 s.

In turn, `Cc1cc(S(=O)(=O)N2C[C@@H](F)C[C@H]2C(=O)N2CCc3ccccc3C2)ccc1F` showed an RP-LC retention time of 959 s. Next, `COc1ccc(-n2c(=O)n(C)c(=O)c3cc(C(=O)NCc4ccccn4)cnc32)cc1`: 600 s. Consider `Cc1c(F)cccc1NC(=O)N(C)CC1CCOCC1`, for which the RP-LC retention time stood at 742 s. With `COc1cccc(-n2c(N3CCCC(C(=O)NCc4cccs4)C3)nc3ccsc3c2=O)c1` (stereo not given), the RP-LC retention time worked out at 822 s. Next, `CN(CCc1noc(-c2ccc(F)cc2)n1)C(=O)Nc1ccc(F)cc1`: 864 s; `Cc1ccc(Cn2nc(-c3nc(C(C)(C)C)no3)ccc2=O)cc1`: 1130 s; `Cn1nnnc1SCC(=O)NCCCC(=O)Nc1cccc2cccnc12`: 620 s. The value for `CCOc1ccc2c(n1)CCN(C(=O)Nc1ccc(C)c(C)c1)C2` was 900 s; that for `CCCCCNC(=O)c1sc2ncccc2c1-n1cccc1` was 1080 s. Next, `COc1nc2ccccc2nc1N1CCCC(C(=O)NC2CCCC(C)C2C)C1` (stereo not given): 1160 s; `COc1ccc(C)cc1NC(=O)C1CC(=O)N(c2n[nH]c3ccccc23)C1` (stereo not given): 755 s. Turning to `CCNC(=O)c1cnn(-c2ccc(-c3nc(CC)no3)cn2)c1C`, the RP-LC retention time is 777 s. The value for `CC(Cc1ccco1)NC(=O)Cn1cccc1-c1nnc(-c2ccccc2)o1` (stereo not given) was 898 s. For the compound `Cc1cc2c(cc1S(=O)(=O)N1CCCCC1)N(C(=O)C1CC1)CC2`, the RP-LC retention time was determined as 980 s. The compound `COc1ccc(C2(C(=O)N3CC(N(Cc4ccncc4)CC4CC4)C3)CCCCC2)cc1` returned an RP-LC retention time of 755 s.

In the case of `Cc1nnc2ccc(S(=O)(=O)Nc3ccc(F)cc3)cn12`, the RP-LC retention time turned out to be 670 s. Next, `CN(Cc1ccccc1)C(=O)CCNc1c(-c2cccc(F)c2)nc2cnccn12`: 814 s. Next, `O=C(Cc1csc2nc(-c3ccccc3)cn12)NC1CCCc2ccccc21` (stereo not given): 851 s. Next, `Cn1nc(C(=O)N2CCCC2)c2c1CCN(C(=O)CCC(=O)NCCN1CCCCCC1)C2`: 586 s. For `CN(C)c1cccc(-c2nc(-c3ccc4nnn(C)c4c3)no2)c1`, the RP-LC retention time was 1070 s. As for `Cc1ccc(N2CC(c3noc(-c4ccc5ccccc5n4)n3)CC2=O)cc1` (stereo not given), the RP-LC retention time turned out to be 899 s. `CCOCCCNC(=O)c1cc2c(n(-c3ccc(C(F)(F)F)cc3)c1=O)CCCC2=O` had an RP-LC retention time of 853 s.

`O=C(Nc1ccc2c(c1)OCCO2)C(=O)c1cn(CC(=O)N2CCOCC2)c2ccccc12` came in with an RP-LC retention time of 850 s. `COC(=O)c1cccc(NC(=O)CCc2cccc3[nH]ccc23)c1` had an RP-LC retention time of 847 s. Consider `OC(COCc1ccc(Cl)cc1)CN1CCCCC1` (stereo not given), for which the RP-LC retention time worked out at 580 s. As to `CCN1C=C(C(=O)OCc2cccc(Cl)c2)C(C)=NS1(=O)=O`, the RP-LC retention time was found to be 1050 s. The value for `COC(=O)c1ccccc1NC(=O)Cn1cnc2c(sc3nc(-c4ccccc4)ccc32)c1=O` was 1110 s; that for `O=C(NCc1cccs1)c1coc(NC(=O)c2ccco2)n1` was 632 s. Take `COc1ccc(NC(=O)c2c(S(=O)(=O)Nc3ccc(Cl)cc3)n[nH]c2C)cc1OC`: the RP-LC retention time worked out at 788 s. Next, `CCOC(=O)c1c(CN2CCN(C)CC2)n(-c2ccccc2)c2cc(Br)c(OC)cc12`: 850 s; `CC1CCN(c2cc(-c3noc(C(=O)NCCN(C)C)n3)ccn2)CC1`: 566 s; `CCc1nc2ccccc2c(C(=O)NC2CCCCC2)c1C`: 650 s. Consider `CNC(=O)c1cc(NC)nc2c(Cl)cccc12`, for which the RP-LC retention time came to 568 s.

`CCc1cc(=O)n(CC(=O)Nc2ccc(Cl)cc2)c(-c2ccccc2)n1` registered an RP-LC retention time of 1190 s. For the compound `O=S(=O)(c1ccc(-c2cnc(C3CCC3)o2)s1)N1CCN(c2ccccn2)CC1`, the RP-LC retention time stood at 767 s.

Compound `O=C(Nc1ccc(Cl)cc1)N1CCC(N2CCN(Cc3ccc(F)cc3)C(=O)C2=O)CC1` displayed an RP-LC retention time of 799 s. Next, `Cc1ccc(-c2nc3c(C)cccn3c2Nc2ccccc2C)cc1`: 788 s; `Cc1cc(NC(=O)Cn2cc3c(n2)CCCCC3)ccc1Br`: 1030 s.

As for `CC(C)Cn1cc(CCNS(=O)(=O)c2ccc3c(c2)CCC3)c2cccnc21`, the RP-LC retention time was found to be 1040 s.

For the compound `O=C(Nc1ccc2c(c1)OCCO2)N1CCc2nc(-c3ccc(F)cc3)ncc2C1`, the RP-LC retention time is 898 s.

With `Cc1ccc(-c2nc3cc(C)ccn3c2Nc2ccc3c(c2)OCCO3)cc1`, the RP-LC retention time was 721 s. With `C[C@@H](CN1CCC(Cc2ccccc2)CC1)[C@@H](O)c1ccc(O)cc1`, the RP-LC retention time was determined as 737 s. For `CN1CCCCCCN(C(=O)Cn2c(=O)oc3ccccc32)[C@H]2CCC[C@H]2C1=O`, the RP-LC retention time was 830 s. The value for `NCC(=O)c1cccc2ccc[n+]([O-])c12` was 678 s; that for `CCn1c(=O)sc2cc(S(=O)(=O)N3CCC(C(=O)NCc4ccc(C)cc4)CC3)ccc21` was 932 s; that for `COc1ccc(-c2cn3c(CC(=O)Nc4ccc(F)cc4Cl)csc3n2)cc1OC` was 766 s.

For the compound `COc1cccc(NC(=O)NCC2CC(=O)N(Cc3ccc(F)cc3)C2)c1OC` (stereo not given), the RP-LC retention time stood at 695 s. The value for `O=C1C2N=NN(Cc3nc(-c4ccc(Cl)cc4)no3)C2C(=O)N1c1ccc(F)cc1` (stereo not given) was 1030 s; that for `CC(C)c1ccc(NC(=O)Cn2nc3c4ccc(Cl)cc4ncn3c2=O)cc1` was 671 s.

In the case of `COCCNC(=O)c1nc(Nc2ccc(C)cc2)c2ccccc2n1`, the RP-LC retention time is 698 s. The value for `O=C(Cc1ccccc1F)NCCc1nc(-c2ccc3c(c2)OCO3)n[nH]1` was 687 s; that for `COc1ccccc1N1CCN(c2ncc(S(=O)(=O)c3ccc(C)c(C)c3)c(N)n2)CC1` was 1020 s.

The compound `Cc1ccc(F)cc1NC(=O)Cn1nc2cc(-c3ccccn3)nc(C)n2c1=O` came in with an RP-LC retention time of 767 s.

As to `CCc1noc(NC(C)=O)c1-c1ccc(C)c(S(=O)(=O)NC(C)C)c1`, the RP-LC retention time came out at 738 s. `COC(=O)CC1CN=C(Nc2nc(C)c3ccccc3n2)NC1=O` (stereo not given) yielded an RP-LC retention time of 615 s. Next, `O=C(c1cccc2c1CCN2C(=O)C1CC1)N1CCCCC1`: 746 s.

As to `Cc1cc(C)n2c(Nc3c(C)cccc3C)c(-c3cccc(Cl)c3)nc2n1`, the RP-LC retention time was found to be 902 s. Take `COc1ccc(-c2noc(N3CCC(C(=O)NCCC4=CCCCC4)CC3)n2)cc1`: the RP-LC retention time stood at 1050 s. The value for `Cc1ccc(NC(=O)C2CC(=O)N(c3ccc4c(c3)CCN4C(=O)C3CC3)C2)c(F)c1` (stereo not given) was 787 s; that for `Cc1cc(NC(=O)Cn2c(C)cc(-c3nnc(C4CCC4)o3)c2C)ccc1F` was 934 s. On to `Cc1ccccc1CC(=O)NC(C)C(=O)Nc1nc2ccccc2[nH]1` (stereo not given), for which the RP-LC retention time was 654 s. On to `COc1ccc(NC(=O)C2CCN(S(=O)(=O)c3ccc4[nH]c(=O)sc4c3)CC2)c(OC)c1`, for which the RP-LC retention time amounted to 774 s. For `O=C(CSc1nnc2ccccn12)N1CCOCC1`, the RP-LC retention time turned out to be 551 s. Next, `CC(C)C(=O)Nc1nc(-c2ccc3c(c2)N(C)C(=O)C(C)O3)cs1` (stereo not given): 822 s. With `COc1ccc(CNC(=O)Nc2c(-c3cccc(C)c3)nc3ccccn23)cc1`, the RP-LC retention time came to 651 s.

Take `Cc1cc(C)c2c(-n3cccc3)c(C(=O)N3CCN(c4ccccn4)CC3)sc2n1`: the RP-LC retention time was determined as 675 s.

`CC(C)c1cccc(NC(=O)Cn2cnc3nc(N4CCC(C(=O)NC5CC5)CC4)sc3c2=O)c1` came in with an RP-LC retention time of 743 s.
